The results in this text go back to patent US20080039376A1, “Use of Cyclic Anabaenopeptin-type Peptides for the Treatment of a Condition Wherein Inhibition of Carboxypeptidase U is Beneficial, Novel Anabaenopeptin Derivatives and Intermediates Thereof” (A[…], priority 2003, published 2008).

The structures appear in SMILES notation. *1 amine or outer side, *2 acyl side, *3 side chain or, on linkers, in order; H or OH if unused. Where a SMILES comes first, the peptide text is derived from it. Bridges are numbered along the chain shown (N, C = ends). [ ]: non-standard residue; d: D form. ξ: configuration not given here. X2 = CN([C@@H](Cc1c[nH]c2cc(Cl)c(O)cc12)C(=O)[*:2])[*:1]; X1 = O=C([C@H](Cc1c[nH]c2cc(Cl)c(O)cc12)N[*:1])[*:2]; Ile(3ξ) = CCC(C)[C@H](N)C(=O)O; NMeL = CN[C@@H](CC(C)C)C(=O)O; CO = O=C([*:1])[*:2]

The experiment deals with T1, carboxypeptidase U (Homo sapiens, UniProt Q96IY4).
T1 sequence (Q96IY4 115-423): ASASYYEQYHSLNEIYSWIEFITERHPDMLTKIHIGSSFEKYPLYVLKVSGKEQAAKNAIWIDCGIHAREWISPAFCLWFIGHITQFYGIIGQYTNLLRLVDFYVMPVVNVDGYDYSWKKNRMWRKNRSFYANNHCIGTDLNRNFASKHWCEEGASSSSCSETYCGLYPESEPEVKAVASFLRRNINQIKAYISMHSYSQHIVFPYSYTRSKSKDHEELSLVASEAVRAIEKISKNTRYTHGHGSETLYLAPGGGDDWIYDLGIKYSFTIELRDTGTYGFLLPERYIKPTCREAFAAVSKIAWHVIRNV
In words: carboxypeptidase U inhibition assay (Hendriks et al., Clin. Chem. 1985), substrate concentration 4 mM. The class given is biochemical. To be noted: substrate concentration of 4 mM. The protocol: The inhibiting effect of the compounds of the present invention was estimated using the assay described in: Dirk Hendriks, Simon Scharpé and Marc van Sande, Clinical Chemistry, 31, 1936-1939 (1985); and Wei Wang, Dirk F. Hendriks, Simon S. Scharpé, The Journal of Biological Chemistry, 269, 15937-15944 (1994), using a substrate concentration of 4 mM.
The activities of certain Examples in the assay described in: Dirk Hendriks, Simon Sharpé and Marc van Sande, Clinical Chemistry, 31, 1936-1939 (1985), using a substrate concentration of 4 mM, are presented in Table I below.

What is called IC50 is the midpoint of a concentration-inhibition curve. Low readings indicate greater potency in that assay, high ones weaker potency in that assay. In the case of `CCC(C)[C@H](NC(=O)N[C@@H]1CCCCNC(=O)[C@H](Cc2ccccc2)NC(=O)[C@H](Cc2c[nH]c3cc(Cl)c(O)cc23)N(C)C(=O)[C@H](CC(C)C)NC(=O)[C@H](C(C)CC)NC1=O)C(=O)O` (some centres unmarked) [Compound 8] ({Ile(3ξ)-CO}-[dK][Ile(3ξ)]L[X2]F; lactam 1-C), the IC50 stood at 2500 nM. The result for `CC(C)C[C@@H]1NC(=O)[C@H](C)NC(=O)[C@H](NC(=O)N[C@@H](CCCNC(=N)N)C(=O)O)CCCCNC(=O)[C@H](Cc2c[nH]c3cc(Cl)c(O)cc23)NC(=O)[C@H](CC(C)C)N(C)C1=O` [Compound 2] ({Arg-CO}-[dK]AL[NMeL][X1]; lactam 1-C) reads 100 nM.
